In PubChem BioAssay AID1963861 (Molecular Pharmacology Branch, DTP, NCI, 2024):

Test system: 885724-159-R-J1-PDC KRAS PDC multicell spheroid viability
Test: Anticancer human tumor 885724-159-R-J1-PDC patient-derived pancreatic adenocarcinoma cell line growth inhibition [KRAS2]
Conditions: for IC50: curve of first compound; for viability, T/C: stronger effect = lower value
Outline: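 Combination screen of spheroid viability in tumor-cell co-cultures with endothelial (HUVEC) and mesenchymal stem cell stroma. Each agent was tested in half-log dilutions, topping at clinical Cmax or at 10 microM without a known Cmax.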

[1] = second compound 0.1 µM, first compound 0.0316 µM
[2] = second compound 0.1 µM, first compound 0.1 µM
[3] = second compound 0.1 µM, first compound 0.316 µM
[4] = second compound 0.1 µM, first compound 1 µM
[5] = second compound 0.1 µM, first compound 3.16 µM
[6] = second compound 0.1 µM, first compound 10 µM
[7] = second compound 0.316 µM, first compound 0.0316 µM
[8] = second compound 0.316 µM, first compound 0.1 µM
[9] = second compound 0.316 µM, first compound 0.316 µM
[10] = second compound 0.316 µM, first compound 1 µM
[11] = second compound 0.316 µM, first compound 3.16 µM
[12] = second compound 0.316 µM, first compound 10 µM
[13] = second compound 1 µM, first compound 0.0316 µM
[14] = second compound 1 µM, first compound 0.1 µM
[15] = second compound 1 µM, first compound 0.316 µM
[16] = second compound 1 µM, first compound 1 µM
[17] = second compound 1 µM, first compound 3.16 µM
[18] = second compound 1 µM, first compound 10 µM
[19] = second compound 3.16 µM, first compound 0.0316 µM
[20] = second compound 3.16 µM, first compound 0.1 µM
[21] = second compound 3.16 µM, first compound 0.316 µM
[22] = second compound 3.16 µM, first compound 1 µM
[23] = second compound 3.16 µM, first compound 3.16 µM
[24] = second compound 3.16 µM, first compound 10 µM
[25] = second compound 10 µM, first compound 0.0316 µM
[26] = second compound 10 µM, first compound 0.1 µM
[27] = second compound 10 µM, first compound 0.316 µM
[28] = second compound 10 µM, first compound 1 µM
[29] = second compound 10 µM, first compound 3.16 µM
[30] = second compound 10 µM, first compound 10 µM
[31] = second compound 0.1 µM, first compound 0.00316 µM
[32] = second compound 0.1 µM, first compound 0.01 µM
[33] = second compound 0.316 µM, first compound 0.00316 µM
[34] = second compound 0.316 µM, first compound 0.01 µM
[35] = second compound 1 µM, first compound 0.00316 µM
[36] = second compound 1 µM, first compound 0.01 µM
[37] = second compound 3.16 µM, first compound 0.00316 µM
[38] = second compound 3.16 µM, first compound 0.01 µM
[39] = second compound 10 µM, first compound 0.00316 µM
[40] = second compound 10 µM, first compound 0.01 µM
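Further: spheroids exposed to agents for 7 days before readout.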

| Compound | IC50 (second compound 0.1 µM) | IC50 (second compound 0.316 µM) | IC50 (second compound 1 µM) | IC50 (second compound 3.16 µM) | IC50 (second compound 10 µM) | viability, T/C [1] | viability, T/C [2] | viability, T/C [3] | viability, T/C [4] | viability, T/C [7] | viability, T/C [8] | viability, T/C [9] | viability, T/C [10] | viability, T/C [13] | viability, T/C [14] | viability, T/C [15] | viability, T/C [19] | viability, T/C [20] | viability, T/C [25] | viability, T/C [26] | other results |
| --- | --- | --- | --- | --- | --- | --- | --- | --- | --- | --- | --- | --- | --- | --- | --- | --- | --- | --- | --- | --- | --- |
| CC(C)NCC(C(=O)N1CCN(c2ncnc3c2C(C)CC3O)CC1)c1ccc(Cl)cc1 (stereo not given) + COc1cc2nc(C)nc(NC(C)c3cc(N)cc(C(F)(F)F)c3)c2cc1OC1CCOC1 | > 10 µM | > 10 µM | > 10 µM | 8.31 µM | < 0.0316 µM | 86.3% | 77.1% | 75.7% | 71.6% | 88.8% | 87.2% | 70.5% | 70.3% | 86.4% | 77.5% | 69.1% | 76.7% | 72.3% | 39.2% | 37.5% | viability, T/C [5]: 74.6%; viability, T/C [6]: 56.8%; viability, T/C [11]: 75.7%; viability, T/C [12]: 57.7%; viability, T/C [16]: 70.8%; viability, T/C [17]: 71.6%; viability, T/C [18]: 56.4%; viability, T/C [21]: 66%; viability, T/C [22]: 71.3%; viability, T/C [23]: 76.9%; viability, T/C [24]: 45.8%; viability, T/C [27]: 26.9%; viability, T/C [28]: 20.8%; viability, T/C [29]: 11.5%; viability, T/C [30]: 6.18% |
| CC1(C)CCC(CN2CCN(c3ccc(C(=O)NS(=O)(=O)c4ccc(NCC5CCOCC5)c([N+](=O)[O-])c4)c(Oc4cnc5[nH]ccc5c4)c3)CC2)=C(c2ccc(Cl)cc2)C1 + COc1cc2nc(C)nc(NC(C)c3cc(N)cc(C(F)(F)F)c3)c2cc1OC1CCOC1 | 7.29 µM | 6.93 µM | 5.01 µM | 4.31 µM | < 0.0316 µM | 93.7% | 91.3% | 91.8% | 88.3% | 96.9% | 88.4% | 86% | 92.7% | 91.2% | 88.3% | 81.9% | 84.4% | 82.8% | 31.2% | 35.5% | viability, T/C [5]: 82.2%; viability, T/C [6]: 37.6%; viability, T/C [11]: 79.5%; viability, T/C [12]: 35.7%; viability, T/C [16]: 83.1%; viability, T/C [17]: 64.1%; viability, T/C [18]: 28%; viability, T/C [21]: 84.4%; viability, T/C [22]: 71.7%; viability, T/C [23]: 59.7%; viability, T/C [24]: 26.4%; viability, T/C [27]: 23.4%; viability, T/C [28]: 27.7%; viability, T/C [29]: 26.2%; viability, T/C [30]: 8.47% |
| CCN1CCN(Cc2ccc(Nc3ncc(F)c(-c4cc(F)c5nc(C)n(C(C)C)c5c4)n3)nc2)CC1 + COc1cc2nc(C)nc(NC(C)c3cc(N)cc(C(F)(F)F)c3)c2cc1OC1CCOC1 | > 1 µM | > 1 µM | > 1 µM | > 1 µM | < 0.00316 µM | 84.2% | 80.7% | 80.7% | 86.1% | 79.9% | 79% | 75.2% | 76.6% | 78.6% | 73.2% | 72.4% | 76% | 63% | 28.3% | 36.6% | viability, T/C [31]: 88.8%; viability, T/C [32]: 89.7%; viability, T/C [33]: 96.3%; viability, T/C [34]: 86.2%; viability, T/C [35]: 90%; viability, T/C [36]: 86.9%; viability, T/C [16]: 80.8%; viability, T/C [37]: 80.3%; viability, T/C [38]: 91.6%; viability, T/C [21]: 71.5%; viability, T/C [22]: 73.1%; viability, T/C [39]: 38.2%; viability, T/C [40]: 35.9%; viability, T/C [27]: 17.6%; viability, T/C [28]: 7.18% |
| Cn1ncnc1[C@H]1c2n[nH]c(=O)c3cc(F)cc(c23)N[C@@H]1c1ccc(F)cc1 + COc1cc2nc(C)nc(NC(C)c3cc(N)cc(C(F)(F)F)c3)c2cc1OC1CCOC1 | > 0.1 µM | > 0.1 µM | > 0.1 µM | > 0.1 µM | < 0.000316 µM | 92.1% | 93.4% |  |  | 94.5% | 91.3% |  |  | 102% | 85.5% |  | 94.3% | 83.1% | 34.2% | 30.4% | viability, T/C (second compound 0.1 µM, first compound 0.000316 µM): 104%; viability, T/C (second compound 0.1 µM, first compound 0.001 µM): 101%; viability, T/C [31]: 102%; viability, T/C [32]: 96.2%; viability, T/C (second compound 0.316 µM, first compound 0.000316 µM): 96.3%; viability, T/C (second compound 0.316 µM, first compound 0.001 µM): 102%; viability, T/C [33]: 98.6%; viability, T/C [34]: 98.3%; viability, T/C (second compound 1 µM, first compound 0.000316 µM): 98.2%; viability, T/C (second compound 1 µM, first compound 0.001 µM): 96.5%; viability, T/C [35]: 92.4%; viability, T/C [36]: 94.3%; viability, T/C (second compound 3.16 µM, first compound 0.000316 µM): 91.8%; viability, T/C (second compound 3.16 µM, first compound 0.001 µM): 97.9%; viability, T/C [37]: 90.5%; viability, T/C [38]: 88.5%; viability, T/C (second compound 10 µM, first compound 0.000316 µM): 42.1%; viability, T/C (second compound 10 µM, first compound 0.001 µM): 44.8%; viability, T/C [39]: 20.7%; viability, T/C [40]: 48.3% |
